According to US20260297042A1, “BIARYLAMIDE DERIVATIVES AND THEIR USE AS PKMYT1 INHIBITORS” (CANCER RESEARCH TECHNOLOGY LIMITED, priority 2023, published 2026):

How the values were obtained:
[1] = target: T1, Human PKMYT1 (Homo sapiens, UniProt Q99640); assay: PKMYT1 biochemical ADP-Glo enzymatic assay; settings: ADP-Glo; 15 nM PKMYT1 kinase domain, 500 µM ATP, 60 minutes at 26° C.; banded
T1 construct: Human PKMYT1 75-362 was cloned as a TEV cleavable 6xHis fusion; 6xHis (TEV cleavable) (cleaved yes); made in house; host or cells: bacterial cells
T1 sequence (Q99640 75-362): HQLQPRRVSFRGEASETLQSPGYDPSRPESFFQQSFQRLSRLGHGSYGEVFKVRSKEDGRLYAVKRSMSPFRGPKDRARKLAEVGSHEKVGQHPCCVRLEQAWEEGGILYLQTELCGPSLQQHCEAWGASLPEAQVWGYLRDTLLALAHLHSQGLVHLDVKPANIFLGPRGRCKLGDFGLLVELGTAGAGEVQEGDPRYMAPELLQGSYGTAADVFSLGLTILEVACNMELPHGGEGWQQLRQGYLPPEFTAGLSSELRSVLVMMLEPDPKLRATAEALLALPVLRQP
Outline: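 Luminescent ADP-Glo Max read-out of ADP produced by 15 nM PKMYT1 (residues 75-362, bacterial, His-tag removed) from 500 µM ATP without peptide substrate. Reaction: 50 mM HEPES pH 7.5, 10 mM MgCl2, 1 mM EGTA, 0.01% Brij-35, 60 min, 26 °C. IC50 values fitted from 10-point curves.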

[2] = target: T2, WEE1 (Homo sapiens, UniProt P30291); assay: Selectivity versus WEE1 assay (ADP-Glo enzymatic assay); format: biochemical; settings: banded; for IC50: ADP-Glo, 15 nM WEE1, 60 minutes at 26° C.; for PKMYT1 vs. WEE1 selectivity: fold difference in selectivity for PKMYT1 over WEE1, ">N" = at least in this band but could be higher
T2 construct: purchased Thermo Fisher PR7373A
T2 sequence (P30291 whole entry): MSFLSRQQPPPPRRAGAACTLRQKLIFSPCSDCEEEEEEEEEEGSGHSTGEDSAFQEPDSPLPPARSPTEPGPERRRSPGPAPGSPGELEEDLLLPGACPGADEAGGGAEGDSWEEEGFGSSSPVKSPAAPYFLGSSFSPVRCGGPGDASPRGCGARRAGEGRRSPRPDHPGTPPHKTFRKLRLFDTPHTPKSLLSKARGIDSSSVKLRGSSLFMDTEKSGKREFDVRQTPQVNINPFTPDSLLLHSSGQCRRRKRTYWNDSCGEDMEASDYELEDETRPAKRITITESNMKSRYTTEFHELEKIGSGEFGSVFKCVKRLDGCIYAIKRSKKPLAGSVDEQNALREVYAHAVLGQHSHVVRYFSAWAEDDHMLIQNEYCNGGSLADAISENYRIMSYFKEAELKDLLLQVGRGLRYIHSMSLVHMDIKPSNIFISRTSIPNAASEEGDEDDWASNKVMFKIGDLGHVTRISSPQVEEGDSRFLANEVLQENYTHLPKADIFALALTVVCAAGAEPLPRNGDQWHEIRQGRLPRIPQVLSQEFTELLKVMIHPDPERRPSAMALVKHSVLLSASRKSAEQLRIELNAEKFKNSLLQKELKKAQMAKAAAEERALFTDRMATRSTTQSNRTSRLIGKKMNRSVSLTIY
Outline: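 ADP-Glo luminescence read-out after a 60 min reaction at 26° C, initiated by 30 µM ATP, with 15 nM enzyme in HEPES pH 7.5/MgCl2/EGTA/Brij-35 buffer containing 1% DMSO. Replicate IC50 values had to agree within 3-fold and fits needed r2 >0.9.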

| Structure (SMILES) | IC50 [1] | IC50 [2] | PKMYT1 vs. WEE1 selectivity [2] |
| --- | --- | --- | --- |
| Cc1ccc(O)c(C)c1NC(=O)c1cnc(Nc2ccn([C@@H]3CCN(C(=O)CC4CCOCC4)C3)n2)s1 [BAA-090] | 0.05 to 1 µM | > 11 µM | >X (100-<1000 fold) |
| Cc1ccc(O)c(C)c1NC(=O)c1cnc(Nc2ccn([C@@H]3CCN(C(=O)Cc4ccc(F)cc4)C3)n2)s1 [BAA-093] | 0.05 to 1 µM | > 11 µM | >X (100-<1000 fold) |
| Cc1ccc(O)c(C)c1NC(=O)c1cnc(Nc2ccn([C@@H]3CCN(C(=O)C(C)(C)c4ccccc4)C3)n2)s1 [BAA-094] | 0.05 to 1 µM | > 11 µM | >X (100-<1000 fold) |
| Cc1ccc(O)c(C)c1NC(=O)c1cnc(Nc2ccn([C@@H]3CCN(C(=O)Cc4ccccc4F)C3)n2)s1 [BAA-095] | 0.05 to 1 µM | > 11 µM | >Y (1000-5000 fold) |
| Cc1ccc(O)c(C)c1NC(=O)c1cnc(Nc2ccn(CCCN3CCOCC3)n2)s1 [BAA-101] | 0.05 to 1 µM | > 11 µM | >X (100-<1000 fold) |
| Cc1ccc(O)c(C)c1NC(=O)c1cnc(Nc2ccn([C@@H]3CCN(C(=O)Cc4cccnc4)C3)n2)s1 [BAA-102] | 0.05 to 1 µM | > 11 µM | >Y (1000-5000 fold) |
| Cc1ccc(O)c(C)c1NC(=O)c1cnc(Nc2ccn([C@@H]3CCN(C(=O)Cc4ccc(N(C)C)cc4)C3)n2)s1 [BAA-105, 2-[[1-[(3R)-1-[2-[4-(dimethylamino)phenyl]acetyl]pyrrolidin-3-yl]pyrazol-3-yl]amino]-N-(3-hydroxy-2,6-dimethyl-phenyl) thiazole-5-carboxamide] | 0.05 to 1 µM | > 11 µM | >Y (1000-5000 fold) |
| Cc1ccc(O)c(C)c1NC(=O)c1cnc(Nc2ccn([C@@H]3CCN(C(=O)NCc4ccccc4)C3)n2)s1 [BAA-108, 2-[[1-[(3R)-1-(Benzylcarbamoyl)pyrrolidin-3-yl]pyrazol-3-yl]amino]-N-(3-hydroxy-2,6-dimethyl-phenyl)thiazole-5-carboxamide] | < 0.05 µM | > 11 µM | >Y (1000-5000 fold) |
| CCNC(=O)N1CC[C@@H](n2ccc(Nc3ncc(C(=O)Nc4c(C)ccc(O)c4C)s3)n2)C1 [BAA-109, 2-[[1-[(3R)-1-(Ethylcarbamoyl)pyrrolidin-3-yl]pyrazol-3-yl]amino]-N-(3-hydroxy-2,6-dimethyl-phenyl)thiazole-5-carboxamide] | 0.05 to 1 µM | > 11 µM | >X (100-<1000 fold) |
| Cc1ccc(O)c(C)c1NC(=O)c1cnc(Nc2ccn([C@@H]3CCN(C(=O)NC4CC4)C3)n2)s1 [BAA-110, 2-[[1-[(3R)-1-(Cyclopropylcarbamoyl)pyrrolidin-3-yl]pyrazol-3-yl]amino]-N-(3-hydroxy-2.6-dimethyl-phenyl)thiazole-5-carboxamide] | 0.05 to 1 µM | > 11 µM | >X (100-<1000 fold) |
| CCN(C)C(=O)N1CC[C@@H](n2ccc(Nc3ncc(C(=O)Nc4c(C)ccc(O)c4C)s3)n2)C1 [BAA-111, 2-[[1-[(3R)-1-[Ethyl(methyl)carbamoyl]pyrrolidin-3-yl]pyrazol-3-yl]amino]-N-(3-hydroxy-2,6-dimethyl-phenyl)thiazole-5-carboxamide] | 0.05 to 1 µM | > 11 µM | >Y (1000-5000 fold) |
| Cc1ccc(O)c(C)c1NC(=O)c1cnc(Nc2ccn([C@@H]3CCN(CCc4ccccc4)C3)n2)s1 [BAA-115] | 0.05 to 1 µM | > 11 µM | >X (100-<1000 fold) |

Results, then the compound that gave them:

| IC50 [1] | IC50 [2] | PKMYT1 vs. WEE1 selectivity [2] | Structure (SMILES) |
| --- | --- | --- | --- |
| 0.05 to 1 µM | > 11 µM |  | Cc1ccc(O)c(C)c1NC(=O)c1cnc(Nc2ccn([C@@H]3CCN(C(=O)c4ccccc4)C3)n2)s1 [BAA-087] |
| 0.05 to 1 µM | > 11 µM | >X (100-<1000 fold) | Cc1ccc(O)c(C)c1NC(=O)c1cnc(Nc2ccn([C@@H]3CCN(C(=O)COc4ccccc4)C3)n2)s1 [BAA-088] |
| 0.05 to 1 µM | > 11 µM | >X (100-<1000 fold) | COc1ccc(CC(=O)N2CC[C@@H](n3ccc(Nc4ncc(C(=O)Nc5c(C)ccc(O)c5C)s4)n3)C2)cc1 [BAA-089] |
| 0.05 to 1 µM | > 11 µM | >X (100-<1000 fold) | COC(=O)CCC(=O)N1CC[C@@H](n2ccc(Nc3ncc(C(=O)Nc4c(C)ccc(O)c4C)s3)n2)C1 [BAA-091] |
| 0.05 to 1 µM | > 11 µM | >X (100-<1000 fold) | COCC(=O)N1CC[C@@H](n2ccc(Nc3ncc(C(=O)Nc4c(C)ccc(O)c4C)s3)n2)C1 [BAA-092] |
| 0.05 to 1 µM | > 11 µM | >Y (1000-5000 fold) | Cc1ccc(O)c(C)c1NC(=O)c1cnc(Nc2ccn([C@@H]3CCN(C(=O)CC(C)C)C3)n2)s1 [BAA-096, N-(3-hydroxy-2,6-dimethyl-phenyl)-2-[[1-[(3R)-1-(3-methylbutanoyl)pyrrolidin-3-yl]pyrazol-3-yl]amino]thiazole-5-carboxamide] |
| 0.05 to 1 µM | > 11 µM | >X (100-<1000 fold) | Cc1ccc(O)c(C)c1NC(=O)c1cnc(Nc2ccn([C@@H]3CCN(C(=O)CC4CCCCC4)C3)n2)s1 [BAA-097] |
| 0.05 to 1 µM | > 11 µM | >X (100-<1000 fold) | Cc1ccc(O)c(C)c1NC(=O)c1cnc(Nc2ccn([C@@H]3CCN(C(=O)Cc4cccs4)C3)n2)s1 [BAA-098] |
| 0.05 to 1 µM | > 11 µM | >X (100-<1000 fold) | Cc1ccc(O)c(C)c1NC(=O)c1cnc(Nc2ccn([C@@H]3CCN(C(=O)C(F)(F)c4ccccc4)C3)n2)s1 [BAA-099, 2-[[1-[(3R)-1-(2,2-Difluoro-2-phenyl-acetyl)pyrrolidin-3-yl]pyrazol-3-yl]amino]-N-(3-hydroxy-2,6-dimethyl-phenyl)thiazole-5-carboxamide] |
| 0.05 to 1 µM | > 11 µM | >X (100-<1000 fold) | COc1ccc(CC(=O)N2CCC(CNc3ncc(C(=O)Nc4c(C)ccc(O)c4C)s3)CC2)nc1 [BAA-100, N-(3-Hydroxy-2,6-dimethyl-phenyl)-2-[[1-[2-(5-methoxy-2-pyridyl)acetyl]-4-piperidyl]methylamino]thiazole-5-carboxamide] |
| 0.05 to 1 µM | > 11 µM | >X (100-<1000 fold) | Cc1ccc(O)c(C)c1NC(=O)c1cnc(Nc2ccn([C@@H]3CCN(C(=O)Cn4cccn4)C3)n2)s1 [BAA-103, N-(3-hydroxy-2,6-dimethyl-phenyl)-2-[1-[(3R)-1-(2-pyrazol-1-ylacetyl)pyrrolidin-3-yl]pyrazol-3-yllamino]thiazole-5-carboxamide] |
| 0.05 to 1 µM | > 11 µM | >X (100-<1000 fold) | Cc1ccc(O)c(C)c1NC(=O)c1cnc(Nc2ccn([C@@H]3CCN(C(=O)Cc4ccncc4)C3)n2)s1 [BAA-104, N-(3-hydroxy-2,6-dimethyl-phenyl)-2-[1-[(3R)-1-[2-(4-pyridyl)acetyl]pyrrolidin-3-yl]pyrazol-3-ylamino]thiazole-5-carboxamide] |
| < 0.05 µM | > 11 µM | >Y (1000-5000 fold) | Cc1ccc(O)c(C)c1NC(=O)c1cnc(Nc2ccn([C@@H]3CCN(C(=O)Cc4ccc(N)cc4)C3)n2)s1 [BAA-106, 2-[[1-[(3R)-1-[2-(4-Aminophenyl)acetyl]pyrrolidin-3-yl]pyrazol-3-yl]amino]-N-(3-hydroxy-2,6-dimethyl-phenyl)thiazole-5-carboxamide] |
| 0.05 to 1 µM | > 11 µM | >X (100-<1000 fold) | Cc1ccc(O)c(C)c1NC(=O)c1cnc(Nc2ccn([C@@H]3CCN(C(=O)CC4CCNCC4)C3)n2)s1 [BAA-107, N-(3-Hydroxy-2,6-dimethyl-phenyl)-2-[[1-[(3R)-1-[2-(4-piperidyl)acetyl]pyrrolidin-3-yl]pyrazol-3-yl]amino]thiazole-5-carboxamide] |
| 0.05 to 1 µM | > 11 µM | >Y (1000-5000 fold) | CCN(CC)C(=O)N1CC[C@@H](n2ccc(Nc3ncc(C(=O)Nc4c(C)ccc(O)c4C)s3)n2)C1 [BAA-112, 2-[[1-[(3R)-1-(Diethylcarbamoyl)pyrrolidin-3-yl]pyrazol-3-yl]amino]-N-(3-hydroxy-2,6-dimethyl-phenyl)thiazole-5-carboxamide] |
| 0.05 to 1 µM | > 11 µM | >X (100-<1000 fold) | CCCN1CC[C@@H](n2ccc(Nc3ncc(C(=O)Nc4c(C)ccc(O)c4C)s3)n2)C1 [BAA-114, N-(3-Hydroxy-2,6-dimethyl-phenyl)-2-[[1-[(3R)-1-propylpyrrolidin-3-yl]pyrazol-3-yl]amino]thiazole-5-carboxamide] |
